Assay results reported in the NIST ThermoML archive (doi:10.1021/acs.jced.7b00543).

Details: Capillary rise

C=C(F)C(F)(F)F [2,3,3,3-tetrafluoro-1-propene]
Details | surface tension liquid-gas [mN/m]
242.21 K | 13.25
244.21 K | 12.98
245.22 K | 12.84
248.08 K | 12.45
250.1 K | 12.18
252.25 K | 11.9
255.34 K | 11.49
258.24 K | 11.11
260.34 K | 10.83
263.12 K | 10.47
265.13 K | 10.21
268.11 K | 9.828
270.15 K | 9.568
275.55 K | 8.889
278.58 K | 8.512
280.24 K | 8.307
283.24 K | 7.94
285.32 K | 7.688
288 K | 7.364
290.08 K | 7.117
296.04 K | 6.415
300.01 K | 5.956
305.09 K | 5.382
310.09 K | 4.829
312.28 K | 4.591
315.2 K | 4.279
317.48 K | 4.038
320.48 K | 3.726
322.47 K | 3.523
325.1 K | 3.259
327.3 K | 3.041
330.27 K | 2.752
332.21 K | 2.568
335.26 K | 2.284
337.53 K | 2.077
340.11 K | 1.85
342.54 K | 1.64
345.13 K | 1.425
347.36 K | 1.244
350.21 K | 1.023
355.63 K | 0.637
360.23 K | 0.349
362.34 K | 0.234
365 K | 0.108

CC(C)C [2-methylpropane]
Details | surface tension liquid-gas [mN/m]
280.34 K | 11.99
283.22 K | 11.79
285.45 K | 11.48
288.02 K | 11.17
290.14 K | 10.99
293.53 K | 10.6
296.42 K | 10.23
299.37 K | 9.829
302.08 K | 9.595
305.41 K | 9.223
307.43 K | 9.03
310.75 K | 8.607
313.15 K | 8.314
315.62 K | 7.999
318.22 K | 7.683
320.46 K | 7.584
323.41 K | 7.172
325.44 K | 7.013
327.83 K | 6.731
329.85 K | 6.538
330.18 K | 6.476
332.56 K | 6.214
335.58 K | 5.925
338.1 K | 5.686
340.42 K | 5.479
342.74 K | 5.22
345.39 K | 4.972
347.26 K | 4.847
350.12 K | 4.526

F/C=C/C(F)(F)F [trans-1,3,3,3-tetrafluoropropene]
Details | surface tension liquid-gas [mN/m]
242.01 K | 15.66
245.14 K | 15.23
248.08 K | 14.82
250.11 K | 14.54
255.11 K | 13.85
260.07 K | 13.18
265.12 K | 12.51
268.98 K | 12
271.51 K | 11.67
275.65 K | 11.13
280.14 K | 10.55
285.03 K | 9.923
288.19 K | 9.525
290.19 K | 9.275
293.1 K | 8.913
295.07 K | 8.67
300.07 K | 8.059
305.06 K | 7.46
310.06 K | 6.873
315.05 K | 6.304
320.05 K | 5.724
325.03 K | 5.171
330.05 K | 4.621
335.09 K | 4.087
340.08 K | 3.565
345.07 K | 3.094
350.07 K | 2.589
355.03 K | 2.132
360.08 K | 1.605
365.09 K | 1.171
370.07 K | 0.761
375.14 K | 0.395
380.09 K | 0.109
